Assay results: patent US8742135B1, “Compound amycolamicin, method for producing the same, and use of the same” (Microbial Chemistry Research Foundation, priority 2009, dated 2014)
≈ marks a conversion by molar mass, not a printed value.

Columns and labels:
Assay type in all cases: cell-based
E. coli K-12 = assay: MIC, Muller Hinton agar, multiple dilution method (Test Example 1); conditions: Escherichia coli, K12, Muller Hinton agar medium
Procedure: (§1) According to the standard method of Japanese Society of Chemotherapy, the amycolamicin was measured for antimicrobial spectrum against various microorganisms including drug-resistant bacteria (e.g., methicilline resistant bacteria and vancomycin resistant bacteria) in the Muller Hinton agar medium by the multiple dilution method.

[1] = system: Ent faecium NCTCI12202(VRE); assay: as above; conditions: Enterococcus, Muller Hinton agar medium
Procedure: as §1

[2] = system: Ent. faecalis NCTC12201(VRE); assay: as above; conditions: Enterococcus faecalis, Muller Hinton agar medium
Procedure: as §1

[3] = system: Ent. faecalis NCTC12203(VRE); assay: as above; conditions: Enterococcus faecalis, Muller Hinton agar medium
Procedure: as §1

Ent. faecium JCM 5804 = assay: as above; conditions: Enterococcus faecium, JCM5804, Muller Hinton agar medium
Procedure: as §1

[4] = system: Ent. faecium NCTCI12204(VRE); assay: as above; conditions: Enterococcus faecium, Muller Hinton agar medium
Procedure: as §1

[5] = system: Enterococcus faecalis JCM 5803; assay: as above; conditions: JCM5803, Muller Hinton agar medium
Procedure: as §1

Escherichia coli NIHJ = assay: as above; conditions: Muller Hinton agar medium
Procedure: as §1

[6] = system: Klebsiella pneumoniae PC1602; assay: as above; conditions: Muller Hinton agar medium
Procedure: as §1

S. aureus MRSA No.17 = assay: as above; conditions: Staphylococcus aureus, Muller Hinton agar medium
Procedure: as §1

S. aureus MRSA No.5 = assay: as above; conditions: Staphylococcus aureus, Muller Hinton agar medium
Procedure: as §1

S. aureus MS16526(MRSA) = assay: as above; conditions: Staphylococcus aureus, Muller Hinton agar medium
Procedure: as §1

S. aureus MS9610 = assay: as above; conditions: Staphylococcus aureus, Muller Hinton agar medium
Procedure: as §1

S. aureus Smith = assay: as above; conditions: Staphylococcus aureus, Muller Hinton agar medium
Procedure: as §1

S. aureus TY-04282(MRSA) = assay: as above; conditions: Staphylococcus aureus, Muller Hinton agar medium
Procedure: as §1

[7] = system: Staphylococcus aureus FDA209P; assay: as above; conditions: Muller Hinton agar medium
Procedure: as §1

[8] = system: Streptococcus pneumoniae S-223; assay: MIC, Muller Hinton agar with sheep blood, 5% CO2 (Test Example 2); conditions: S223, Muller Hinton agar + sheep blood 5% by volume
[9] = system: Haemophilus infulenzae IID938; assay: as above; conditions: Muller Hinton agar + sheep blood 5% by volume
H. infulenzae IID985 = assay: as above; conditions: Haemophilus, Muller Hinton agar + sheep blood 5% by volume
H. infulenzae IID986 = assay: as above; conditions: Haemophilus, Muller Hinton agar + sheep blood 5% by volume
H. infulenzae IID987 = assay: as above; conditions: Haemophilus, Muller Hinton agar + sheep blood 5% by volume
H. infulenzae IID988 = assay: as above; conditions: Haemophilus, Muller Hinton agar + sheep blood 5% by volume
H. infulenzae T196 = assay: as above; conditions: Haemophilus, Muller Hinton agar + sheep blood 5% by volume
M. haemolytica N811 = assay: MIC, brain heart infusion agar, multiple dilution method (Test Example 3); conditions: Mannheimia haemolytica, brain heart infusion agar medium
Procedure: (§2) According to the standard method of Japanese Society of Chemotherapy, the amycolamicin was measured for antimicrobial spectrum against bacteria causing pneumonia in domestic livestock in the brain heart infusion agar medium by the multiple dilution method.

[10] = system: Mannheimia haemolytica N791; assay: as above; conditions: brain heart infusion agar medium
Procedure: as §2

P. multocida Kobe = assay: as above; conditions: Pasteurella multocida, brain heart infusion agar medium
Procedure: as §2

P. multocida M-17 = assay: as above; conditions: Pasteurella multocida, M17, brain heart infusion agar medium
Procedure: as §2

P. multocida TS-8 = assay: as above; conditions: Pasteurella multocida, TS8, brain heart infusion agar medium
Procedure: as §2

[11] = system: Pasteurella multocida No. 6; assay: as above; conditions: brain heart infusion agar medium
Procedure: as §2

A. pleuropneumoniae 6H-8 = assay: MIC, Muller Hinton agar with Fields enrichment, 5% CO2 (Test Example 4); conditions: Actinobacillus pleuropneumoniae, 6H8, Muller Hinton agar + Fields enrichment 5% by volume
Procedure: (§3) According to the standard method of Japanese Society of Chemotherapy, the amycolamicin was measured for antimicrobial spectrum against bacteria causing pneumonia in domestic livestock other than those listed in Table 3 in the Muller Hinton agar medium supplemented with Fields enrichment (5% by volume) by the multiple dilution method in an atmosphere of 5% by volume CO2.

A. pleuropneumoniae 7H-3 = assay: as above; conditions: Actinobacillus pleuropneumoniae, 7H3, Muller Hinton agar + Fields enrichment 5% by volume
Procedure: as §3

A. pleuropneumoniae CH-1 = assay: as above; conditions: Actinobacillus pleuropneumoniae, CH1, Muller Hinton agar + Fields enrichment 5% by volume
Procedure: as §3

[12] = system: A. pleuropneumoniae CH-2(H4024); assay: as above; conditions: Actinobacillus pleuropneumoniae, Muller Hinton agar + Fields enrichment 5% by volume
Procedure: as §3

[13] = system: A. pleuropneumoniae HPT-1; assay: as above; conditions: Actinobacillus pleuropneumoniae, HPT1, Muller Hinton agar + Fields enrichment 5% by volume
Procedure: as §3

A. pleuropneumoniae Hi-1 = assay: as above; conditions: Actinobacillus pleuropneumoniae, HI1, Muller Hinton agar + Fields enrichment 5% by volume
Procedure: as §3

A. pleuropneumoniae M-1 = assay: as above; conditions: Actinobacillus pleuropneumoniae, M1, Muller Hinton agar + Fields enrichment 5% by volume
Procedure: as §3

[14] = system: A. pleuropneumoniae O-223; assay: as above; conditions: Actinobacillus pleuropneumoniae, O223, Muller Hinton agar + Fields enrichment 5% by volume
Procedure: as §3

[15] = system: A. pleuropneumoniae SHP-17; assay: as above; conditions: Actinobacillus pleuropneumoniae, SHP17, Muller Hinton agar + Fields enrichment 5% by volume
Procedure: as §3

[16] = system: A. pleuropneumoniae Shop1421; assay: as above; conditions: Actinobacillus pleuropneumoniae, Muller Hinton agar + Fields enrichment 5% by volume
Procedure: as §3

A. pleuropneumoniae YN = assay: as above; conditions: Actinobacillus pleuropneumoniae, Muller Hinton agar + Fields enrichment 5% by volume
Procedure: as §3

[17] = system: Actinobacillus pleuropneumoniae NB001; assay: as above; conditions: Muller Hinton agar + Fields enrichment 5% by volume
Procedure: as §3

[18] = system: Histophilus somni 23N2359; assay: as above; conditions: Muller Hinton agar + Fields enrichment 5% by volume
Procedure: as §3

Compound: C=C1CCC(OC2CC(O)(C(C)NC(=O)c3[nH]c(C)c(Cl)c3Cl)C(O)C(C)O2)C2C=CC(C)C(C(=O)C3=C(O)C(C(C)C)N(C4OC(C)C(OC(N)=O)C(OC(C)=O)C4OC)C3=O)C12 (stereo not drawn) [amycolamicin]
- MIC (E. coli K-12): 12.5 µg/mL (≈ 13.3 µM)
- MIC [1]: 0.78 µg/mL (≈ 0.83 µM)
- MIC [2]: 0.1 µg/mL (≈ 0.106 µM)
- MIC [3]: 0.2 µg/mL (≈ 0.213 µM)
- MIC (Ent. faecium JCM 5804): 0.78 µg/mL (≈ 0.83 µM)
- MIC [4]: 0.78 µg/mL (≈ 0.83 µM)
- MIC [5]: 0.2 µg/mL (≈ 0.213 µM)
- MIC (Escherichia coli NIHJ): 12.5 µg/mL (≈ 13.3 µM)
- MIC [6]: 6.25 µg/mL (≈ 6.65 µM)
- MIC (S. aureus MRSA No.17): 0.39 µg/mL (≈ 0.415 µM)
- MIC (S. aureus MRSA No.5): 0.39 µg/mL (≈ 0.415 µM)
- MIC (S. aureus MS16526(MRSA)): 0.39 µg/mL (≈ 0.415 µM)
- MIC (S. aureus MS9610): 0.39 µg/mL (≈ 0.415 µM)
- MIC (S. aureus Smith): 0.39 µg/mL (≈ 0.415 µM)
- MIC (S. aureus TY-04282(MRSA)): 0.39 µg/mL (≈ 0.415 µM)
- MIC [7]: 0.39 µg/mL (≈ 0.415 µM)
- MIC [8]: 0.39 µg/mL
- MIC [9]: 0.78 µg/mL
- MIC (H. infulenzae IID985): 0.78 µg/mL
- MIC (H. infulenzae IID986): 0.78 µg/mL
- MIC (H. infulenzae IID987): 0.78 µg/mL
- MIC (H. infulenzae IID988): 0.78 µg/mL
- MIC (H. infulenzae T196): 0.2 µg/mL
- MIC (M. haemolytica N811): 0.78 µg/mL (≈ 0.83 µM)
- MIC [10]: 0.78 µg/mL (≈ 0.83 µM)
- MIC (P. multocida Kobe): 0.78 µg/mL (≈ 0.83 µM)
- MIC (P. multocida M-17): 0.78 µg/mL (≈ 0.83 µM)
- MIC (P. multocida TS-8): 0.78 µg/mL (≈ 0.83 µM)
- MIC [11]: 1.56 µg/mL (≈ 1.66 µM)
- MIC (A. pleuropneumoniae 6H-8): 1.56 µg/mL
- MIC (A. pleuropneumoniae 7H-3): 1.56 µg/mL
- MIC (A. pleuropneumoniae CH-1): 1.56 µg/mL
- MIC [12]: 1.56 µg/mL
- MIC [13]: 1.56 µg/mL
- MIC (A. pleuropneumoniae Hi-1): 3.13 µg/mL
- MIC (A. pleuropneumoniae M-1): 0.78 µg/mL
- MIC [14]: 1.56 µg/mL
- MIC [15]: 1.56 µg/mL
- MIC [16]: 3.13 µg/mL
- MIC (A. pleuropneumoniae YN): 0.78 µg/mL
- MIC [17]: 1.56 µg/mL
- MIC [18]: 0.2 µg/mL
